The record followed here is ChEMBL document CHEMBL1124530, “Dimethylsulfonium analogues of the muscarinic agent McN-A-343: [4-[[N-(3- or 4-halophenyl)carbamoyl]oxy]-2-butynyl] dimethylsulfonium perchlorates” (1989).

Assay [1] concerns the target T1, Muscarinic acetylcholine receptor (Homo sapiens) (UniProt P20309+P08173+P11229+P08172+P08912). Briefly: Tested in vitro for agonistic activity of compound towards muscarinic receptor in the concentration range of 1xe-6 to 1xe-4 M of guinea pig ileum; Inactive. As to conditions: Cavia porcellus, target entry is the homologue from another species. In kind it is functional, tissue-based.

In assay [2] the test system is Rattus norvegicus. Briefly: Ganglionic muscarinic activity was determined by the changes in mean arterial blood pressure of the pithed rat treated with to produce a half-maximal pressure response up i.v. administration. The format is functional. As to conditions: iv.
The target of assay [3] is T1, Muscarinic acetylcholine receptor (Homo sapiens). Briefly: Tested in vitro for agonistic activity of compound towards muscarinic receptor in the concentration range of 1xe-6 to 1xe-4 M of guinea pig ileum; Responce varied in the range 17- 40%. In kind it is functional, tissue-based. As to conditions: Cavia porcellus, filed as partial agonist, target entry is the homologue from another species.

Assay [4] is described as follows: Equipotent molar ratio relative to carbachol for nicotininc activity in frog was determined. The format is functional.
In assay [5] the test system is Rattus norvegicus. Kind of assay: Ganglionic muscarinic activity was determined by the changes in mean arterial blood pressure of the pithed rat treated with to produce a half-maximal pressure response up i.v. administration; Inactive when assayed a dose range of 1-10 umol/Kg. The format is functional, organism-based.

Activity calls are given as the source filed them.

Turning to `C[S+](C)CC#CCOC(=O)Nc1cccc(Cl)c1.[O-][Cl+3]([O-])([O-])[O-]`, the Max respose result in assay [1] is “inactive”. Also, the ED50 in the assay with Rattus norvegicus [2] was 1.49 µmol/kg.

As for `C[S+](C)CC#CCOC(=O)Nc1cccc(Br)c1.[O-][Cl+3]([O-])([O-])[O-]`, the Max respose entry in assay [1] was “inactive”. The same compound yielded an ED50 in the assay with Rattus norvegicus [2] of 1.47 µmol/kg.

For the compound `C[S+](C)CC#CCOC(=O)Nc1ccc(Br)cc1.[O-][Cl+3]([O-])([O-])[O-]`, the Max respose result in assay [1] was “inactive”. In the assay on Rattus norvegicus [2], this compound had an ED50 of 1.56 µmol/kg.

Turning to `C[N+](C)(C)CC#CCOC(=O)Nc1cccc(Br)c1`, in assay [3], the Max respose entry is “Partial agonist”. Moreover, the 50% effect level in the assay with Rattus norvegicus [2] (ED50) was put at a dose of 0.7 µmol/kg. Moreover, the Ratio in assay [4] was determined as 4.

For the compound `CN(C)CC#CCOC(=O)Nc1ccc(Br)cc1`, the ED50 entry with Rattus norvegicus [5] is “Inactive when assayed a dose range of 1-10 umol/Kg”.

With `C[S+](C)CC#CCOC(=O)Nc1ccc(Cl)cc1.[O-][Cl+3]([O-])([O-])[O-]`, the Max respose result in assay [1] is “inactive”. In the assay with Rattus norvegicus [2], this compound gave an ED50 of 1.52 µmol/kg.

`C[N+](C)(C)CC#CCOC(=O)Nc1cccc(Cl)c1` came in with an ED50 in the assay on Rattus norvegicus [2] of 0.59 µmol/kg.

On to `C[N+](C)(C)CC#CCOC(=O)Nc1ccc(Br)cc1`, for which the Max respose result in assay [3] is “Partial agonist”. In addition, the ED50 in the assay on Rattus norvegicus [2] came to 0.22 µmol/kg. Also, the Ratio in assay [4] is 3.7.

`CN(C)CC#CCOC(=O)Nc1cccc(Br)c1`: the ED50 entry in the assay on Rattus norvegicus [5] was “Inactive when assayed a dose range of 1-10 umol/Kg”.
